Results as given in patent publication US10711001B2, “Macrocylic ligands with picolinate group(s), complexes thereof and also medical uses thereof” (GUERBET, priority 2015, dated 2020).
Read-outs that look alike come from different tables or passages of the source. Marks after values point to notes of the source that are not given here.

Experiments:
[1] = pM = −log[M] calculated from protonation and stability constants; assay type: physicochemical; conditions: calculated from the constants with CL = 10 × CM = 10^−5 M at pH 7.4
Description: The constant pM=-log[M] is used for this purpose. […] The ligand […]04214 has a p(Y) of 17.3, which is higher than that of PCTA (p(Y)=17.0), of […])=16.8) and of […])=16.9).

[2] = cited from earlier work
[3] = Y^3+, cited from earlier work
[4] = Complexation kinetics of the ligands with yttrium by UV-visible spectroscopy; assay type: physicochemical
Protocol: The formation of the yttrium(III) complexes of […] were studied in an aqueous solution of acetate buffer (C=0.150 M) at 25° C. under pseudo-first-order conditions.
The complexation kinetics of the ligands Pc1a2pa sym P04213, Pc1a2pa asym P04214 and Pc2a1pa sym P04218 with yttrium were studied at pH 3.8 and pH 5.5 in acetate buffer medium by UV-visible spectroscopy. Placed at the absorption maximum of the complex, the increase in absorbance intensity is measured every two seconds until the maximum absorbance is reached. The decrease in intensity of the absorbance at the absorbance maximum of the ligand is monitored when the absorption band of the complex is masked by that of the ligand. For this study, the concentration of the ligands Pc1a2pa sym and Pc1a2pa asym is 4×10^−5 M and 8×10^−5 M for the ligand Pc2a1pa sym. At pH 5.5 and 3.8, the ligand Pc1a2pa sym has the fastest complexation kinetics, with total complexation in 30 and 400 seconds, respectively. For the ligands Pc1a2pa asym and Pc2a1pa sym, the complexation is complete in 1100 seconds at pH 3.8 and 100 seconds at pH 5.5.

[5] = Stability constants of the yttrium complexes by potentiometry; assay type: physicochemical; conditions: Y^3+
Protocol: (§1) The experiments were performed under an inert atmosphere in aqueous solutions thermostatically maintained at 25.0±0.1° C. The protonation and complexation titrations were performed in a jacketed glass titrations cell using a Metrohm 702 SM Titrino automatic burette connected to a Metrohm 6.0233.100 combined glass electrode. The titrations were controlled automatically by software after selection of the appropriate parameters avoiding monitoring during long measurements.
(§2) The ligand solutions were prepared at approximately 2.0×10^−3 M and the Cu^2+, Pb^2+ and y^3+ solutions at approximately 0.04 M from analytical-grade chloride salts and standardized by complexometric titration with H4edta (ethylenediaminetetraacetic acid)^1. The solution to be titrated contains approximately 0.05 mmol of ligand in a volume of 30.00 mL, the ionic strength of which was maintained at 0.10 M using KNO3 as electrolyte. 1.2 equivalents of metal cation (Cu^2+ or Pb^2+) were added to the ligand (0.05 mmol) during the standardization titrations of the ligand solution.
0.9 equivalent of metal cation (Y^3+) was added to the ligand during the complexation titration methods.
(§3) The potentiometric data were refined with the Hyperquad software^2 and the speciation diagrams were plotted using the HySS software^3.
(§4) The overall equilibrium constants βiH and βMmHhLl are defined by βMmHhLl=[MmHhLl]/[M]m[H]h[L]l, (βiH=[HhLl]/[H]h[L]l and βMH−1L=βML(OH)×Ke). The differences, in log units, between the protonation (or hydrolysis) values and the non-protonation constants give the intermediate reaction constants (log K) (with KMmHhLl=[MmHhLl]/[MmHh-1Ll][H]). The errors indicated are the standard deviations calculated by the adjustment program from all of the experimental data for each system.
The thermodynamic protonation and stability constants of the complexes were determined by potentiometry at 25° C. with control of the ionic strength (I=0.1 M KNO3). Refinement of the titration curves with the HyperQuad software makes it possible to determine the overall constants (log β), from which the partial constants (log K) are calculated.
The stability constants of the ligands Pc1a2pa sym P04213, Pc1a2pa asym P04214 et Pc2a1pa sym P04218 and P04221 with yttrium were determined by direct potentiometric titration. The log KYL constant values for the ligands Pc1a2pa sym, Pc1a2pa asym and Pc2a1pa sym are, respectively, 19.78, 19.49 and 19.28, and the log KYLH^−1 constant values are 11.84, 11.79 and 10.60.

[6] = Protonation constants of the ligands by potentiometry; assay type: physicochemical; conditions: I = 0.1 KNO3, 25° C.
Protocol: as §1
The titrant is an approximately 0.1 M KOH solution prepared from an analytical-grade commercial vial and its exact concentration is obtained by applying the Gran method by titrating with a standard HNO3 solution.
as §2
The electromotive force of the solution was measured after calibration of the electrode by titration of a standard […] HNO3 solution. The [H^+] of the solutions was determined by measuring the electromotive force of the cell, E=E^o′+Q log [H^+]+Ej. The term “pH” is defined by −log[H^+]. E^o′ and Q are determined by the acidic region of the calibration curves. The liquid junction potential, Ej, is negligible under the experimental conditions used. The value of Ke=[H^+][OH^−] is 10^−13.78.
as §3, §4
Four protonation constants were determined for the ligands Pc1a2pa sym P04213, Pc1a2pa asym P04214, Pc2a1pa sym P04216 and Pc3pa P04221. These values are coherent with those determined for PCTMB (phosphonic acid, P,P′,P″-[3,6,9,15-tetraazabicyclo[9.3.1]pentadeca-1(15),11,13-triene-3,6,9-triyltris(methylene)]tris-, P,P′,P″-tributyl ester) and also with those described in the literature especially for PCTA (3,6,9,15-tetraazabicyclo[9.3.1]pentadeca-1(15),11,13-triene-3,6,9-triacetic acid), EDTA (ethylenediaminetetraacetic acid) and DOTA (1,4,7,10-tetraazacyclododecane-1,4,7,10-tetraacetic acid).

[7] = Relaxivity of the gadolinium complexes; assay type: physicochemical; conditions: gadolinium complex of the ligand, water, 37° C.
Protocol: The relaxivity studies were performed on the gadolinium complexes of the ligands P04218, P04216 and P04213, on Minispec Mq-20 and Minispec Mq-60 machines (Brüker, Karlsruhe, Germany) at 20 MHz (0.47 T) and 60 MHz (1.4 T) in water at 37° C.
For each complex prepared previously, a [Gd] concentration range extending from 0.5 to 5 mM was prepared and the values T1 and T2 of each of these solutions were then measured to determine the relaxivity values r1 and r2 by means of equation 1. For each of the ligands, a trend curve whose correlation coefficient was equal to or very close to 1 was obtained, which made it possible to check equation 1 and to validate the quality of the measurements taken. The curves plotted make it possible to determine the relaxivity value “r” which corresponds to coefficient “a” of the equation for the straight line “ax+b”.

[8] = direct potentiometric titration, 25° C., I=0.1 M KNO3
[9] = determined by competition with EDTA, 0.1M KNO3

SMILES	pY (pM = −log[M]) [1]	time to total complexation with yttrium ([4]; pH 3.8, acetate buffer)	time to total complexation with yttrium ([4]; pH 5.5, acetate buffer)	log KMHiL [ML]/[MLOH][H] (log KYLH^−1) [5, 8]	log KMHiL [ML]/[M][L] (log KYL) [5, 8]	log Ki^H [H2L]/[HL][H] [6]	log Ki^H [H3L]/[H2L][H] [6]	log Ki^H [H4L]/[H3L][H] [6]	log Ki^H [HL]/[L][H] [6]	Relaxivity r1 ([7]; 20 MHz (0.47 T))	Relaxivity r1 ([7]; 60 MHz (1.4 T))	other results
O=C(O)CN1CCN(CC(=O)O)CCN(CC(=O)O)CCN(CC(=O)O)CC1 [DOTA, 1,4,7,10-tetraazacyclododecane-1,4,7,10-tetraacetic acid]	18.8											log Ki^H [H2L]/[HL][H] ([2]; I = 0.1 Me4NNO3): 9.76; log Ki^H [H3L]/[H2L][H] ([2]; I = 0.1 Me4NNO3): 4.56; log Ki^H [H4L]/[H3L][H] ([2]; I = 0.1 Me4NNO3): 4.09; log KMHiL [ML]/[M][L] ([3]; Ref 7, 0.1M NMe4NO3): 24.9 ^h
O=C(O)CN(CCN(CC(=O)O)CC(=O)O)CC(=O)O [EDTA, ethylenediaminetetraacetic acid]	16.6											log Ki^H [H2L]/[HL][H] ([2]; I = 0.1 KNO3): 6.16; log Ki^H [H3L]/[H2L][H] ([2]; I = 0.1 KNO3): 2.71; log Ki^H [H4L]/[H3L][H] ([2]; I = 0.1 KNO3): 2.0; log Ki^H [HL]/[L][H] ([2]; I = 0.1 KNO3): 10.22; log KMHiL [ML]/[M][L] ([3]; Ref 5, 0.1M NMe4Cl): 18.5 ^d
O=C(O)CN1CCN(Cc2cccc(C(=O)O)n2)Cc2cccc(n2)CN(Cc2cccc(C(=O)O)n2)CC1 [Ligand P04213]	16.8	400 s	30 s	11.84	19.78	5.58	4.23	3.01	11.30	r1 = 1.9 mmol^−1s^−1	r1 = 1.6 mmol^−1s^−1	
O=C(O)CN1CCN(Cc2cccc(C(=O)O)n2)CCN(Cc2cccc(C(=O)O)n2)Cc2cccc(n2)C1 [Ligand P04214]	17.3	1100 s	100 s	11.79	19.49	6.73	3.86	2.98	10.50			
O=C(O)CN1CCN(CC(=O)O)Cc2cccc(n2)CN(Cc2cccc(C(=O)O)n2)CC1 [Ligand P04216]										r1 = 3.7 mmol^−1s^−1	r1 = 3.2 mmol^−1s^−1	
O=C(O)CN1CCN(Cc2cccc(C(=O)O)n2)CCN(CC(=O)O)Cc2cccc(n2)C1 [Ligand P04218]	16.9	1100 s	100 s	10.60	19.28	7.38	3.95	2.15	10.43	r1 = 3.9 mmol^−1s^−1	r1 = 3.2 mmol^−1s^−1	
O=C(O)c1cccc(CN2CCN(Cc3cccc(C(=O)O)n3)Cc3cccc(n3)CN(Cc3cccc(C(=O)O)n3)CC2)n1 [Ligand P04221]						5.95	3.82	2.98	10.03			
O=C([O-])c1cccc(CN2CCN(Cc3cccc(C(=O)[O-])n3)Cc3cccc(n3)CN(Cc3cccc(C(=O)[O-])n3)CC2)n1.[Y+3] [Ligand P04222]	14.7			11.02	16.42							log KMHiL [MHL]/[ML][H] [5, 8]: 3.11
O=C(O)CN1CCN(CC(=O)O)Cc2cccc(n2)CN(CC(=O)O)CC1 [PCTA, 3,6,9,15-tetraazabicyclo[9.3.1]pentadeca-1(15),11,13-triene-3,6,9-triacetic acid]	17.0											log Ki^H [H2L]/[HL][H] ([2]; I = 1.0 KCl): 7.35; log Ki^H [H3L]/[H2L][H] ([2]; I = 1.0 KCl): 3.83; log Ki^H [H4L]/[H3L][H] ([2]; I = 1.0 KCl): 2.12; log Ki^H [H5L]/[H4L][H] ([2]; I = 1.0 KCl): 1.29; log Ki^H [HL]/[L][H] ([2]; I = 1.0 KCl): 11.36; log KMHiL [MHL]/[ML][H] ([3]; Ref 3, 1.0M KCl): 1.81; log KMHiL [ML]/[MLOH][H] ([3]; Ref 3, 1.0M KCl): 11.10; log KMHiL [ML]/[M][L] ([3]; Ref 3, 1.0M KCl): 20.28
CCCCOP(=O)(O)CN1CCN(CP(=O)(O)OCCCC)Cc2cccc(n2)CN(CP(=O)(O)OCCCC)CC1 [PCTMB, phosphonic acid, P,P′,P″-[3,6,9,15-tetraazabicyclo[9.3.1]pentadeca-1(15),11,13-triene-3,6,9-triyltris(methylene)]tris-, P,P′,P″-tributyl ester, reference compound]	16.7					5.28	1.72		11.16			log KMHiL [MHL]/[ML][H] [5, 9]: 3.45; log KMHiL [ML]/[MLOH][H] [5, 9]: 9.10; log KMHiL [ML]/[M][L] [5, 9]: 19.49
